Laboratory results published in US20240391859A1, “ALDEHYDE COMPOSITION” (MITSUBISHI GAS CHEMICAL COMPANY, INC., priority 2021, published 2024).

Experiments:
Bhas42 cells = test: Carcinogenicity prediction test (transformation test based on OECD GD231); type: cell-based; conditions: in vitro
Protocol: Using the aldehyde compositions obtained in Examples and Lilial (3-(p-tert-butylphenyl)-2-methylpropanal), a transformation test (an in vitro carcinogenicity prediction test using Bhas42 cells) was performed based on OECD GD231 to determine whether the carcinogenicity was negative or positive. When the result of this test is negative, it is predicted that there is no possibility of causing carcinogenicity, and safety is high.

[1] = Evaluation of threshold of smell; conditions: diluted with dipropylene glycol; lower limit concentration at which smell can be distinguished
Protocol: A filter paper having a width of 8 mm and a length of 15 cm was impregnated with each diluent and a lower limit concentration at which smell can be distinguished by a method in which a specialized panelist sniffs was evaluated. As the lower limit concentration is lower, the threshold of smell is lower, and the intensity and diffusibility of the aroma are more excellent.

Q: Which Carcinogenicity prediction test (Bhas42 cells) does the source give for `CC(C=O)Cc1ccc(C(C)(C)C)cc1` (centres unmarked) [Comparative Example 5, 3-(p-tert-butylphenyl)-2-methylpropanal] here?
A: The Carcinogenicity prediction test was “Positive”.

Q: And the Threshold of smell [1]?
A: The Threshold of smell was 1 ppm.
